Measurements taken from US8574899B2, “Methods for augmentation collection of placental hematopoietic stem cells and uses thereof” (priority 2010, dated 2013).
Marks after values point to notes of the source that are not given here.

Columns and labels:
human term placentas = experiment: Yield of TNC, CD34+CD45dim cells and CFU from placenta infused with cell-liberating compounds; assay type: cell-based; conditions: infusion in PBS+, incubated 3-8 hours at 37° C., mean, N = 5; for Yield of colony-forming unit cells (CFU) obtained from placenta related to cord blood unit from the same donor: Methocult 12-14 days
From the text: HSCs and HPCs of the current invention were collected from 30 human term placentas by use of different cell-liberating compounds. Following IRB approval and informed consent, human term placentas were obtained from healthy females following caesarian section. Freshly obtained human placentas, which had been subjected to a conventional cord blood recovery process by draining substantially all of the cord blood from the placenta were used. Cord blood was collected from umbilical cord using standard techniques. Placentas were first infused with an anticoagulant/vasodilator solution (Heparin 30 […] 0.05 mg/ml) at a temperature of 20° C. For infusion procedures, artery and vein of umbilical cord were further cannulated and connected to a reservoir. Pressure in the umbilical cord artery and vein was constantly measured using Baxter pressure transducers (Protocol Systems, Portland, Oreg.). Constant temperature of infusate was maintained using heat exchange unit connected to temperature-controlled water bath. Placentas was infused with 100 ml phosphate buffered saline with additives: heparin (10 […]-acetyl-cysteine (1 mM), gentamycin (0.05 mg/ml) (PBS+) (Experiment 1), or 100 ml PBS+ with 3 mg/L AMD3100 (Sigma, St. Louis, Mo.) (Experiment 2); or 100 ml PBS+ with 1 mg/ml BIO5192 (Experiment 3). BIO5192 was supplied by AnorMED (Vancouver, BC) as a sterile powder and reconstituted in pH 7.0 ethanol:propylene glycol:water (10:36:54). In Experiment 4 100 ml PBS+ with 1 mg/ml Trypsin and 0.1 mg/ml Collagenase I (Sigma, St. Louis, Mo.) was infused into the placental artery or vein. In Experiment 5 100 ml PBS+ with Etoposide (1 mM) was infused into placental vein. […] Following incubation, fluid with cells was drained out of placental vessels and umbilical vein was infused with 100 ml of PBS and later flushed out 4 times via the umbilical artery. Collected cell suspension was centrifuged for 10 min at 1000 rpm, cells at the bottom collected and reconstituted in 10 ml PBS with heparin for further analyses. The following analyses were performed on cord blood and cell suspensions obtained from placenta: number of total nucleated cells determined by flow cytometry, number of CD34^+ and CD34^+CD45^dim cells determined by immunostaining with antibodies to CD34 and CD45, flow cytometry performed using FACS Calibur flow cytometer (BD Biosciences) and FlowJo software. Amounts of colony-forming unit cells were determined by culturing cells for 12-14 days in Methocult® medium (Stem Cell Technologies, Vancouver, Canada) according to manufacturer's instruction. Data obtained from cells collected from placental circulation were normalized to same variables obtained by analyses of cord blood cells (cord blood unit) collected from the corresponding placenta and are presented as percent of cord blood unit.

[1] = target: T1, α4-subunit of the α4β1 (VLA-4) and α4β7 integrins (Homo sapiens, UniProt P13612); conditions: MS patients after anti-α4 integrin antibody administration; cited from earlier work
T1 construct: host or cells: MS patients (in vivo, endogenous protein)

α4β1 integrin = α4β1 integrin (Homo sapiens, UniProt P05556+P13612); conditions: unactivated and activated forms of α4β1 integrin; cited from earlier work
human placenta = conditions: 6-8 hour vascular perfusion of placenta; cited from earlier work
CXCR4 = CXCR4 (Homo sapiens, UniProt P61073); conditions: in vivo; cited from earlier work
Sequence of CXCR4 (P61073 whole entry, species assumed): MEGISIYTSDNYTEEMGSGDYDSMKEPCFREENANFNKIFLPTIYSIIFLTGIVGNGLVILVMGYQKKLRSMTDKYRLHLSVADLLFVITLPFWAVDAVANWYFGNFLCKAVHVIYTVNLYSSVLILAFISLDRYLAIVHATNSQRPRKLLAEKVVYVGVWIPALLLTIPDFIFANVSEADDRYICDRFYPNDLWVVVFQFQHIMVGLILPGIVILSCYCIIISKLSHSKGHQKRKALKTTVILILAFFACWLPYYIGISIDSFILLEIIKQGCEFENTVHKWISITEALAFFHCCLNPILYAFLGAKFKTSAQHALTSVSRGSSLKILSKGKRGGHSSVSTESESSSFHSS

| Compound | Yield of colony-forming unit cells (CFU) obtained from placenta related to cord blood unit from the same donor (human term placentas) | Yield of CD34+CD45dim cells obtained from placenta related to cord blood unit from the same donor (human term placentas) | Yield of TNC obtained from placenta related to cord blood unit from the same donor (human term placentas) | Circulating HSPCs [1] | Kd (α4β1 integrin) | Increase of yield of HSC from perfusate as compared to cord blood unit HSCs (human placenta) | Mobilization of hematopoietic stem cells from the bone marrow to the bloodstream (CXCR4) |
| --- | --- | --- | --- | --- | --- | --- | --- |
| COc1cc([C@@H]2c3cc4c(cc3[C@@H](O[C@@H]3O[C@@H]5CO[C@@H](C)O[C@H]5[C@H](O)[C@H]3O)[C@H]3COC(=O)[C@H]23)OCO4)cc(OC)c1O [Etoposide] | 211* % | 185* % | 18% |  |  |  |  |
| natalizumab: recombinant humanized neutralizing IgG4 monoclonal antibody that binds the α4-subunit of α4β1 (VLA-4) and α4β7 integrins |  |  |  | rapid and sustained increase in circulating HSPCs |  |  |  |
| Cc1ccccc1NC(=O)Nc1ccc(CC(=O)N(C)[C@@H](CC(C)C)C(=O)NCC[C@H](NC(=O)[C@@H]2CCCN2S(=O)(=O)c2cc(Cl)cc(Cl)c2)C(=O)O)cc1 [BIO5192] | 423* % | 524* % | 24% |  | < 0.01 nM |  |  |
| c1cc(CN2CCCNCCNCCCNCC2)ccc1CN1CCCNCCNCCCNCC1 [AMD3100, 1,1′-[1,4-phenylene-bis(methylene)]-bis-1,4,8,11-tetraazacyclotetradecane] | 332* % | 412* % | 31% |  |  | several-fold | strong inducer of mobilization of hematopoietic stem cells |
